# Columns and labels:
# Type in all cases: functional
# [1] = Antiproliferative activity against human MOLT4 cells assessed as cell growth at 10^-5 M after 48 hrs by sulforhodamine B assay; conditions: MOLT-4, 48 h, read-out: Activity
# MDA-MB-231 = test: Antiproliferative activity against human MDA-MB-231 cells assessed as cell growth at 10^-5 M after 48 hrs by sulforhodamine B assay; conditions: MDA-MB-231, 48 h, read-out: Activity
# A549 = test: Antiproliferative activity against human A549/ATCC cells assessed as cell growth at 10^-5 M after 48 hrs by sulforhodamine B assay; conditions: A549, 48 h, read-out: Activity
# [2] = Antiproliferative activity against human HOP62 cells assessed as cell growth at 10^-5 M after 48 hrs by sulforhodamine B assay; conditions: HOP-62, 48 h, read-out: Activity
# [3] = Antiproliferative activity against human PC3 cells assessed as cell growth at 10^-5 M after 48 hrs by sulforhodamine B assay; conditions: PC-3, 48 h, read-out: Activity
# [4] = Antiproliferative activity against human OVCAR5 cells assessed as cell growth at 10^-5 M after 48 hrs by sulforhodamine B assay; conditions: OVCAR-5, 48 h, read-out: Activity
# SR = test: Antiproliferative activity against human SR cells assessed as cell growth at 10^-5 M after 48 hrs by sulforhodamine B assay; conditions: read-out: Activity
# [5] = Antiproliferative activity against human Hs 578T cells assessed as cell growth at 10^-5 M after 48 hrs by sulforhodamine B assay; conditions: read-out: Activity
# [6] = Antiproliferative activity against human IGROV1 cells assessed as cell growth at 10^-5 M after 48 hrs by sulforhodamine B assay; conditions: IGROV-1, 48 h, read-out: Activity
# NCI-H226 = test: Antiproliferative activity against human NCI-H226 cells assessed as cell growth at 10^-5 M after 48 hrs by sulforhodamine B assay; conditions: NCI-H226, 48 h, read-out: Activity
# [7] = Antiproliferative activity against human SNB75 cells assessed as cell growth at 10^-5 M after 48 hrs by sulforhodamine B assay; conditions: SNB-75, 48 h, read-out: Activity
# [8] = Cytotoxicity against human HCT116 cells assessed as growth inhibition at 10 uM after 2 days by MTT assay; conditions: HCT-116, 48 h, read-out: GI
# T47D = test: Antiproliferative activity against human T47D cells assessed as cell growth at 10^-5 M after 48 hrs by sulforhodamine B assay; conditions: read-out: Activity
# NCI-H460 = test: Antiproliferative activity against human NCI-H460 cells assessed as cell growth at 10^-5 M after 48 hrs by sulforhodamine B assay; conditions: NCI-H460, 48 h, read-out: Activity
# [9] = Antiproliferative activity against human SF295 cells assessed as cell growth at 10^-5 M after 48 hrs by sulforhodamine B assay; conditions: SF-295, 48 h, read-out: Activity
# [10] = Cytotoxicity against human HCT116 cells assessed as growth inhibition at 100 uM after 2 days by MTT assay; conditions: HCT-116, 48 h, read-out: GI
# [11] = Antiproliferative activity against human DU145 cells assessed as cell growth at 10^-5 M after 48 hrs by sulforhodamine B assay; conditions: DU-145, 48 h, read-out: Activity
# [12] = Antiproliferative activity against human HCC2998 cells assessed as cell growth at 10^-5 M after 48 hrs by sulforhodamine B assay; conditions: HCC 2998, 48 h, read-out: Activity
# NCI-H522 = test: Antiproliferative activity against human NCI-H522 cells assessed as cell growth at 10^-5 M after 48 hrs by sulforhodamine B assay; conditions: NCI-H522, 48 h, read-out: Activity
# [13] = Antiproliferative activity against human HCT15 cells assessed as cell growth at 10^-5 M after 48 hrs by sulforhodamine B assay; conditions: HCT-15, 48 h, read-out: Activity
# EKVX = test: Antiproliferative activity against human EKVX cells assessed as cell growth at 10^-5 M after 48 hrs by sulforhodamine B assay; conditions: read-out: Activity
# [14] = Antiproliferative activity against human OVCAR3 cells assessed as cell growth at 10^-5 M after 48 hrs by sulforhodamine B assay; conditions: OVCAR-3, 48 h, read-out: Activity
# [15] = Cytotoxicity against human SKBR3 cells assessed as growth inhibition at 10 uM after 2 days by MTT assay; conditions: SK-BR-3, 48 h, read-out: GI
# [16] = Antiproliferative activity against human COLO205 cells assessed as cell growth at 10^-5 M after 48 hrs by sulforhodamine B assay; conditions: COLO 205, 48 h, read-out: Activity
# NCI-H322M = test: Antiproliferative activity against human NCI-H322M cells assessed as cell growth at 10^-5 M after 48 hrs by sulforhodamine B assay; conditions: read-out: Activity
# [17] = Cytotoxicity against human SKBR3 cells assessed as growth inhibition at 100 uM after 2 days by MTT assay; conditions: SK-BR-3, 48 h, read-out: GI
# [18] = Antiproliferative activity against human UO31 cells assessed as cell growth at 10^-5 M after 48 hrs by sulforhodamine B assay; conditions: UO-31, 48 h, read-out: Activity
# [19] = Antiproliferative activity against human HCT116 cells assessed as cell growth at 10^-5 M after 48 hrs by sulforhodamine B assay; conditions: HCT-116, 48 h, read-out: Activity
# Malme-3M = test: Antiproliferative activity against human MALME-3M cells assessed as cell growth at 10^-5 M after 48 hrs by sulforhodamine B assay; conditions: read-out: Activity
# [20] = Antiproliferative activity against human UACC62 cells assessed as cell growth at 10^-5 M after 48 hrs by sulforhodamine B assay; conditions: UACC-62, 48 h, read-out: Activity
# [21] = Antiproliferative activity against human LOXIMVI cells assessed as cell growth at 10^-5 M after 48 hrs by sulforhodamine B assay; conditions: LOX IMVI, read-out: Activity
# KM12 = test: Antiproliferative activity against human KM12 cells assessed as cell growth at 10^-5 M after 48 hrs by sulforhodamine B assay; conditions: KM12, 48 h, read-out: Activity
# MDA-MB-435 = test: Antiproliferative activity against human MDA-MB-435 cells assessed as cell growth at 10^-5 M after 48 hrs by sulforhodamine B assay; conditions: MDA-MB-435, 48 h, read-out: Activity
# [22] = Antiproliferative activity against human BT549 cells assessed as cell growth at 10^-5 M after 48 hrs by sulforhodamine B assay; conditions: BT-549, 48 h, read-out: Activity
# 786-0 = test: Antiproliferative activity against human 786-0 cells assessed as cell growth at 10^-5 M after 48 hrs by sulforhodamine B assay; conditions: 786-0, 48 h, read-out: Activity
# [23] = Antiproliferative activity against human HOP92 cells assessed as cell growth at 10^-5 M after 48 hrs by sulforhodamine B assay; conditions: HOP-92, 48 h, read-out: Activity
# [24] = Antiproliferative activity against human SNB19 cells assessed as cell growth at 10^-5 M after 48 hrs by sulforhodamine B assay; conditions: SNB-19, 48 h, read-out: Activity
Compound,growth at 10 µM [1] [%],growth at 10 µM (MDA-MB-231) [%],growth at 10 µM (A549) [%],growth at 10 µM [2] [%],growth at 10 µM [3] [%],growth at 10 µM (SR) [%],growth at 10 µM [5] [%],growth at 10 µM [6] [%],growth at 10 µM (NCI-H226) [%],growth at 10 µM [7] [%],inhibition of growth at 10 µM [8] [%],growth at 10 µM (T47D) [%],growth at 10 µM (NCI-H460) [%],growth at 10 µM [9] [%],inhibition of growth at 100 µM [10] [%],growth at 10 µM [11] [%],growth at 10 µM [12] [%],growth at 10 µM (NCI-H522) [%],inhibition of growth at 10 µM [15] [%],inhibition of growth at 100 µM [17] [%],further results
CNC(=O)c1cc(Oc2ccc3nc(NC(=O)c4ccc(Cl)c(C(F)(F)F)c4)sc3c2)ccn1,67.3,75.3,71.7,83.7,62.7,37.6,66.2,85.8,93.4,39,30.2,64.8,56.4,78.3,92.3,73,74.8,57.3,6.26,86.5,growth at 10 µM [4]: 93.3%; growth at 10 µM [13]: 85%; growth at 10 µM (EKVX): 78.8%; growth at 10 µM [14]: 66.4%; growth at 10 µM [16]: 80.4%; growth at 10 µM (NCI-H322M): 87.4%; growth at 10 µM [18]: 80.4%; growth at 10 µM [19]: 61.9%; growth at 10 µM (Malme-3M): 57%; growth at 10 µM [20]: 81.1%; growth at 10 µM [21]: 71.2%; growth at 10 µM (KM12): 67.7%; growth at 10 µM (MDA-MB-435): 80.4%; growth at 10 µM [22]: 80.6%
CNC(=O)c1cc(Oc2ccc(NC(=O)Nc3ccc(Cl)c(C(F)(F)F)c3)cc2)ccn1 [SORAFENIB],–,–,–,–,–,–,–,–,–,–,48.4,–,–,–,97.3,–,–,–,48.9,93.1,–
CNC(=O)c1cc(Oc2ccc3nc(NC(=O)Nc4ccc(Cl)c(C(F)(F)F)c4)sc3c2)ccn1,38,-38,-50,-42,-67,-1,-17,-36,-14,-75,82.8,-34,-57,-68,94.4,-10,20,6,79.6,94.5,growth at 10 µM [4]: -13%; growth at 10 µM (786-0): -64%; growth at 10 µM [23]: -54%; growth at 10 µM [13]: -9%; growth at 10 µM (EKVX): -50%; growth at 10 µM [14]: -70%; growth at 10 µM [16]: -11%; growth at 10 µM (NCI-H322M): -14%; growth at 10 µM [18]: -54%; growth at 10 µM [19]: -29%; growth at 10 µM (Malme-3M): -62%; growth at 10 µM [20]: -22%; growth at 10 µM (KM12): 20%; growth at 10 µM (MDA-MB-435): -36%; growth at 10 µM [22]: -1%
CNC(=O)c1cc(Oc2ccc3nc(NC(=O)Nc4ccc(Cl)c(Cl)c4)sc3c2)ccn1,76,-20,-62,-79,-53,39,-23,-20,-56,-69,69.8,-26,-40,-81,91.9,-25,29,20,69,92.6,growth at 10 µM (786-0): -41%; growth at 10 µM [23]: -44%; growth at 10 µM [13]: -19%; growth at 10 µM (EKVX): 16%; growth at 10 µM [14]: -37%; growth at 10 µM [16]: 16%; growth at 10 µM (NCI-H322M): -4%; growth at 10 µM [18]: -72%; growth at 10 µM [19]: -50%; growth at 10 µM (Malme-3M): -71%; growth at 10 µM [20]: -11%; growth at 10 µM [21]: -79%; growth at 10 µM [24]: -67%; growth at 10 µM (KM12): 5%; growth at 10 µM (MDA-MB-435): -47%; growth at 10 µM [22]: 26%
